Where “and” joins values, the source holds several entries; their conditions need not be identical. Equal entries are not always repeated. Non-standard residues stand in square brackets, D forms with d. Residues, ends and D or L forms follow the SMILES beside them. Nva = CCC[C@H](N)C(=O)O
How the values were obtained:
[1] = tested on: CCl4 induced liver fibrosis mice; test: CCl4 mice: serum ALT, AST and liver HYP; assay type: in vivo, mouse; parameters: AST, Supplementary Figure 14 / HYP, Supplementary Figure 14: unit not given here; conditions: for HYP, Supplementary Figure 14 / AST, Supplementary Figure 14: CCl4 + JT003 mice; for HYP, Supplementary Figure 14: liver; for AST, Supplementary Figure 14: serum
Experimental: (§1) Male mice liver fibrosis was induced by intraperitoneal injection of 20% CCl4 (Sigma, USA) diluted in corn oil (Aladdin, China) every 3 days for 6 weeks (n = 6; 5 ml kg^−1 body weight). Mice injected with equivalent volume of corn oil serves as control group (n = 6). Liver fibrosis mice treated with JT003 for 3 weeks were used to evaluated the pharmacological effects (n = 6; 500 μg kg^−1; daily intraperitoneal injection).
The levels of ALT, AST, TC and TG in serum were determined using certain commercial assay kits (Nanjing Jiancheng Bioengineering Institute, China). Fasting adiponectin and insulin were quantified in plasma samples using corresponding commercially available Elisa kits (Cloud-Clone Crop, USA).
The levels of TG and HYP in liver tissue were detected with certain commercial assay kit (Nanjing Jiancheng Bioengineering Institute, China). Formalin-fixed liver tissues were embedded in paraffin, sectioned into 5 μm slices. After deparaffinization and rehydration of the section slices, they were stained with Haematoxylin and Eosin or Periodic Acid-Schiff. For the detection of liver collagen content, Sirius Red staining for collagen was performed. OCT-embedded frozen liver tissues were sectioned into 12 μm slices, and Oil Red O staining was performed. The cryostat-cut slices were stained with freshly prepared Oil Red O working solution for 7 min Two independent experimenters who were blinded to the treatment evaluated the staining slides and analyzed the score for steatosis, glucogen accumulation and collagen proliferation area.

AdipoR2 = target: T1, AdipoR2 (Homo sapiens, UniProt Q86V24); test: HTRF binding, AdipoR2 overexpression HEK293 cells; conditions: in words
T1 construct: His; host or cells: HEK293
T1 sequence (Q86V24 1-386): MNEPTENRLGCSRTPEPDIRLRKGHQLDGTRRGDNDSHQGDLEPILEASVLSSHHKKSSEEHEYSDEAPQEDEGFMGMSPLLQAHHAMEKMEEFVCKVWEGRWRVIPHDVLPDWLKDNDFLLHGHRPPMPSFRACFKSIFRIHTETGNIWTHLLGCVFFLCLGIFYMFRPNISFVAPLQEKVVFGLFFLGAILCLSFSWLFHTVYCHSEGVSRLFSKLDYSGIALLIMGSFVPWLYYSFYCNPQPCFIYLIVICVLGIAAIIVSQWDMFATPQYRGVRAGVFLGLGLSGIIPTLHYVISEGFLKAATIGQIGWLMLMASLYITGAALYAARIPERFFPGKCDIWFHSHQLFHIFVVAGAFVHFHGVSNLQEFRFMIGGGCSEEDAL
Experimental: The expression plasmid of AdipoR1 and AdipoR2 were synthesized and codon optimized by Genescript (Nanjing, China) for their expression in HEK293 cell line. The concentration of FITC-JT003 was 0, 0.1, 0.25, 0.5, 1, 2.5 or 5 μM respectively. Unlabeled peptide JT003 was used as the control to measure the non-specific signal. 10E4 AdipoR1 and AdipoR2 overexpression cells, anti-His-Tb (ThermoFisher Scientific, USA) and JT003-FITC were added into a 384-well plate, with a total volume of 25μl. The mixtures were incubated at room temperature for 30 min in the dark. Fluorescent values at 520 nm and 620 nm were measured for Kd calculation.

[2] = Pharmacokinetic assay in SD rats; assay type: in vivo, rat
Experimental: Male SpragueDawley (SD) rats were randomly divided into two groups (n = 3 per group) and received a single intravenous dose of JT003 (0.5 mg/kg) or ADP355 (1.0 mg kg^−1) respectively. Blood samples were collected at 5, 15, 30, 45 min and 1, 2, 3 h following the injection, and then were immediately centrifuged (4000g, 10 min, 4 °C) to obtain plasma samples. Plasma concentrations of the two peptides were measured by LC-MS/MS (ThermoFisher Scientific, USA). Pharmacokinetic parameters of JT003 and ADP355 were calculated using non-compartmental analysis in Phoenix WinNonlin (version 8.0, Pharsight, USA). The concentration values less than the LLOQ were set to zero for the analysis.

[3] = tested on: liver protein expression of CCl4 induced liver fibrosis mice; test: CCl4 mice: liver western blot; assay type: in vivo, mouse
Experimental: as §1
Total protein was isolated from cells or liver samples using RIPA lysis buffer (50.0 mM Tris-HCl (pH = 8.0), 150.0 mM NaCl, 0.02% NaN3, 0.1% SDS, 1% NP-40, 0.5% deoxysodium cholate, 1 mM EDTA, […]). The protein concentration was quantified with BCA kit (Pierce, ThermoFisher Scientific, USA). Thirty micrograms protein were separated by 10 or 12% sodium dodecyl sulfate-polyacrylamide gel electrophoresis depending on the band of target protein, then transferred onto equilibrated polyvinylidene difluoride membrane (PVDF, Immobilon®-PSQ transfer membranes, Merck Millipore, Germany). Membranes were incubated with primary antibodies overnight at 4 °C. Specific antibodies were listed in Supplementary Table 3. After incubation with the secondary antibody, proteins were detected by enhanced chemiluminescence (Glarity^TM Western ECL Substrate, Bio-Rad, USA) and the signals were recorded and quantified with Tanon-Image Software (Shanghai, China). Reference antibody GAPDH were used for data normalization.

[4] = Sprague-Dawley, rat, male SD rats, single iv dose: JT003 0.5 mg/kg, ADP355 1.0 mg/kg, plasma, LC-MS/MS, non-compartmental, Mean ± SD, n = 3-6
[5] = Figure 7e, liver western blot, CCl4 + JT003 group, single replicates, n = 4
[6] = Figure 7f, liver western blot, CCl4 + JT003 group, single replicates, n = 4

## CCC[C@H](NC(=O)[C@@H]1CCCN1)C(=O)N[C@@H](CC(C)C)C(=O)N[C@@H](Cc1ccc(O)cc1)C(=O)N[C@@H](Cc1ccc(O)cc1)C(=O)N[C@@H](Cc1ccccc1)C(=O)N[C@@H](C)C(N)=O [JT003] (H-P[Nva]LYYFA-NH2)
[1]; replicate 1
  HYP, Supplementary Figure 14: 4.654
  AST, Supplementary Figure 14: 54.5376
[1]; replicate 2
  HYP, Supplementary Figure 14: 11.7831
  AST, Supplementary Figure 14: 45.2431
[1]; replicate 3
  HYP, Supplementary Figure 14: 12.1297
  AST, Supplementary Figure 14: 22.8392
[1]; replicate 4
  AST, Supplementary Figure 14: 27.6777
[1]; replicate 5
  AST, Supplementary Figure 14: 24.2523
[1]; replicate 6
  AST, Supplementary Figure 14: 28.6282
[1]; CCl4 mice, JT003 500 μg kg−1 i.p. daily 3 weeks, in words
  ALT, AST and HYP activities: notably diminished
AdipoR2
  Kd value for AdipoR2 compared to JT006 and ADP355: significantly lower Kd value
[2]; [4]
  AUC(0-inf): 20.9 ± 1.63 ng·h/mL
  AUC(0-t): 19.4 ± 1.51 ng·h/mL
  MRT: 62.4 ± 1.8 min
  clearance: 401 mL/min/kg
[2]; Sprague-Dawley, rat, male SD rats, single iv dose: JT003 0.5 mg/kg, ADP355 1.0 mg/kg, plasma, LC-MS/MS, non-compartmental, Mean ± SD, n = 3-6, read-out: V
  Vd: 26 ± 2.29 L/kg
[2]; male SD rats, single iv dose: JT003 0.5 mg/kg, ADP355 1.0 mg/kg, plasma, LC-MS/MS, non-compartmental, Mean ± SD, n = 3-6 (n = 3 per group)
  t1/2: 45 ± 0.6 min and 45 min
[2]; reviewer's reading of the PK experiment
  improved circulating half-life vs the predecessor compound (ADP355): 7-8 fold
[3]; CCl4 fibrosis mice, liver, JT003 500 μg kg−1, in words
  NFκB (western blotting): significantly downregulated
[3]; CCl4 induced fibrosis mice, liver, JT003 500 μg kg−1, in words
  phosphorylation levels of JNK, eIF2α and PERK: decreased phosphorylation levels
[3]; CCl4 mice, JT003 500 μg kg−1, in words
  αSMA and COL1α1 (western blot, liver): significant downregulation
[3]; [5]
  pJNK/JNK: 0.7206 and 0.4902 and 0.6285 and 0.438
  pPERK/PERK: 0.5616 and 0.9445 and 0.6641 and 0.5949
  peIF2a/eIF2a: 1.116 and 0.4247 and 0.9192 and 0.3729
[3]; [6]
  CYP2E1/GAPDH: 1.469 and 1.0581 and 1.298 and 1.11
  PGC1a/GAPDH: 2.2635 and 2.209 and 2.565 and 2.497
[3]; Figure 6d, liver, CCl4 + JT003 group, single replicates, n = 4
  anti-PP65 / anti-P65 western blot quantification: 0.3517 and 0.3717 and 0.2194 and 0.5295

Source: PMC7669869, “AdipoR1/AdipoR2 dual agonist recovers nonalcoholic steatohepatitis and related fibrosis via endoplasmic reticulum-mitochondria axis” (Nature Communications, 2020)
